Experimental data from patent US11540518B2, “Fungicidal oxadiazoles” (FMC Corporation, priority 2017, dated 2023).

How the values were obtained:
Type in all cases: in vivo
Phakopsora pachyrhizi = assay: Test A: Asian soybean rust control on soybean seedlings; details: sprayed to run-off on soybean seedlings, inoculated the following day, 100 = 100% disease control, 0 = no control
Summary of the method: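 Compounds in acetone/water (50/50) with 250 ppm PEG400 were sprayed to run-off on soybean seedlings, which were inoculated with P. pachyrhizi spores the next day. Plants were held in saturated atmosphere at 22° C for 24 h, then 8 days at 22° C, before visual rating (0–100% disease control vs controls).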

Zymoseptoria tritici = assay: Test B: wheat leaf blotch control on wheat seedlings; details: 250 ppm (incl. values marked * = tested at 250 ppm), sprayed to run-off on wheat seedlings, inoculated the following day; 100 = 100% disease control, 0 = no control
Source text: General protocol for preparing test suspensions for Tests A-C: the test compounds were first dissolved in acetone in an amount equal to 3% of the final volume and then suspended at the desired concentration (in ppm) in acetone and purified water (50/50 mix by volume) containing 250 ppm of the surfactant PEG400 (polyhydric alcohol esters). The resulting test suspensions were then used in Tests A-C. The test solution was sprayed to the point of run-off on wheat seedlings. The following day the seedlings were inoculated with a spore suspension of Zymoseptoria tritici (the causal agent of wheat leaf blotch) and incubated in a saturated atmosphere at 24° C. for 48 h, and then moved to a growth chamber at 20° C. for 17 days, after which time disease ratings were made. Results for Tests A-C are given in Table A. In the Table, a rating of 100 indicates 100% disease control and a rating of 0 indicates no disease control (relative to the controls). A dash (-) indicates the compound was not tested.

[1] = system: Puccinia recondita f. sp. tritici; assay: Test C: wheat leaf rust control on wheat seedlings; details: sprayed to run-off on wheat seedlings, inoculated the following day, 100 = 100% disease control, 0 = no control
Summary of the method: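 Wheat seedlings were sprayed to run-off with compound suspension (ppm, acetone/water with 250 ppm PEG400), then inoculated with Puccinia recondita f. sp. tritici spores the next day. Plants were held 24 h in saturated atmosphere at 20 °C, then 6 days in a 20 °C growth chamber. Disease control is rated 0-100% relative to untreated controls.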

CCOC(=O)NN=Cc1ccc(-c2noc(C(F)(F)F)n2)s1 [Compound 124]
Test A disease control rating (Phakopsora pachyrhizi; 50 ppm): 100%
Test B disease control rating (Zymoseptoria tritici): 73* %
Test C disease control rating ([1]; 50 ppm): 100%

O=C(OC(c1ccc(-c2noc(C(F)(F)F)n2)cc1)c1cccc(F)c1)n1ccnc1 (stereo not drawn) [Compound 125]
Test A disease control rating (Phakopsora pachyrhizi; 250 ppm): 100%
Test B disease control rating (Zymoseptoria tritici): 97%
Test C disease control rating ([1]; 250 ppm): 100%

O=C(OC(c1ccc(-c2noc(C(F)(F)F)n2)cc1)c1cccc(Cl)c1)n1ccnc1 (stereo not drawn) [Compound 126]
Test A disease control rating (Phakopsora pachyrhizi; 10 ppm): 99%
Test B disease control rating (Zymoseptoria tritici): 88* %
Test C disease control rating ([1]; 10 ppm): 0%

O=C(OC(c1ccc(F)cc1)c1ccc(-c2noc(C(F)(F)F)n2)cc1)n1ccnc1 (stereo not drawn) [Compound 127]
Test A disease control rating (Phakopsora pachyrhizi; 250 ppm): 100%
Test B disease control rating (Zymoseptoria tritici): 99%
Test C disease control rating ([1]; 250 ppm): 100%

Cc1ccccc1C(OC(N)=O)c1ccc(-c2noc(C(F)(F)F)n2)cc1 (stereo not drawn) [Compound 128]
Test A disease control rating (Phakopsora pachyrhizi; 250 ppm): 100%
Test B disease control rating (Zymoseptoria tritici): 88%
Test C disease control rating ([1]; 250 ppm): 100%

CNC(=O)OC(c1ccc(-c2noc(C(F)(F)F)n2)cc1)c1ccccc1C (stereo not drawn) [Compound 129]
Test A disease control rating (Phakopsora pachyrhizi; 250 ppm): 100%
Test B disease control rating (Zymoseptoria tritici): 74%
Test C disease control rating ([1]; 250 ppm): 100%

NC(=O)OC(c1ccc(-c2noc(C(F)(F)F)n2)cc1)c1cccc(F)c1 (stereo not drawn) [Compound 131]
Test A disease control rating (Phakopsora pachyrhizi; 250 ppm): 100%
Test B disease control rating (Zymoseptoria tritici): 96%
Test C disease control rating ([1]; 250 ppm): 100%

CNC(=O)OC(c1ccc(-c2noc(C(F)(F)F)n2)cc1)c1cccc(F)c1 (stereo not drawn) [Compound 132]
Test A disease control rating (Phakopsora pachyrhizi; 250 ppm): 100%
Test B disease control rating (Zymoseptoria tritici): 95%
Test C disease control rating ([1]; 250 ppm): 100%

CCNC(=O)OC(c1ccc(-c2noc(C(F)(F)F)n2)cc1)c1cccc(F)c1 (stereo not drawn) [Compound 133]
Test A disease control rating (Phakopsora pachyrhizi; 250 ppm): 100%
Test B disease control rating (Zymoseptoria tritici): 99%
Test C disease control rating ([1]; 250 ppm): 100%

CN(C)C(=O)OC(c1ccc(-c2noc(C(F)(F)F)n2)cc1)c1cccc(F)c1 (stereo not drawn) [Compound 134]
Test A disease control rating (Phakopsora pachyrhizi; 250 ppm): 100%
Test B disease control rating (Zymoseptoria tritici): 50%
Test C disease control rating ([1]; 250 ppm): 89%

C#CCNC(=O)OC(c1ccc(-c2noc(C(F)(F)F)n2)cc1)c1cccc(F)c1 (stereo not drawn) [Compound 135]
Test A disease control rating (Phakopsora pachyrhizi; 250 ppm): 100%
Test B disease control rating (Zymoseptoria tritici): 88%
Test C disease control rating ([1]; 250 ppm): 100%

CNC(=O)OC(c1ccccc1)c1ccc(-c2noc(C(F)(F)F)n2)cc1 (stereo not drawn) [Compound 137]
Test A disease control rating (Phakopsora pachyrhizi; 250 ppm): 100%
Test B disease control rating (Zymoseptoria tritici): 70%
Test C disease control rating ([1]; 250 ppm): 100%

C=CCNC(=O)OC(c1ccccc1)c1ccc(-c2noc(C(F)(F)F)n2)cc1 (stereo not drawn) [Compound 138]
Test A disease control rating (Phakopsora pachyrhizi; 250 ppm): 100%
Test B disease control rating (Zymoseptoria tritici): 99%
Test C disease control rating ([1]; 250 ppm): 100%

CCCNC(=O)OC(c1ccccc1)c1ccc(-c2noc(C(F)(F)F)n2)cc1 (stereo not drawn) [Compound 139]
Test A disease control rating (Phakopsora pachyrhizi; 250 ppm): 100%
Test B disease control rating (Zymoseptoria tritici): 56%
Test C disease control rating ([1]; 250 ppm): 100%

CC(C)CNC(=O)OC(c1ccccc1)c1ccc(-c2noc(C(F)(F)F)n2)cc1 (stereo not drawn) [Compound 140]
Test A disease control rating (Phakopsora pachyrhizi; 250 ppm): 100%
Test B disease control rating (Zymoseptoria tritici): 34%
Test C disease control rating ([1]; 250 ppm): 86%

COC(=O)NN=Cc1ccc(-c2noc(C(F)(F)F)n2)s1 [Compound 141]
Test A disease control rating (Phakopsora pachyrhizi; 50 ppm): 100%
Test B disease control rating (Zymoseptoria tritici): 93* %
Test C disease control rating ([1]; 50 ppm): 100%

Cc1ccc(C(OC(N)=O)c2ccc(-c3noc(C(F)(F)F)n3)cc2)cc1 (stereo not drawn) [Compound 143]
Test A disease control rating (Phakopsora pachyrhizi; 250 ppm): 100%
Test B disease control rating (Zymoseptoria tritici): 69%
Test C disease control rating ([1]; 250 ppm): 100%

CNC(=O)OC(c1ccc(C)cc1)c1ccc(-c2noc(C(F)(F)F)n2)cc1 (stereo not drawn) [Compound 144]
Test A disease control rating (Phakopsora pachyrhizi; 250 ppm): 100%
Test B disease control rating (Zymoseptoria tritici): 0%
Test C disease control rating ([1]; 250 ppm): 100%

CCNC(=O)OC(c1ccc(C)cc1)c1ccc(-c2noc(C(F)(F)F)n2)cc1 (stereo not drawn) [Compound 145]
Test A disease control rating (Phakopsora pachyrhizi; 250 ppm): 100%
Test B disease control rating (Zymoseptoria tritici): 28%
Test C disease control rating ([1]; 250 ppm): 98%

C=C(C)CNC(=O)OC(c1ccc(C)cc1)c1ccc(-c2noc(C(F)(F)F)n2)cc1 (stereo not drawn) [Compound 146]
Test A disease control rating (Phakopsora pachyrhizi; 250 ppm): 100%
Test B disease control rating (Zymoseptoria tritici): 21%
Test C disease control rating ([1]; 250 ppm): 97%
